Patent US8227207B2, “Bioactive peptides derived from the proteins of egg white by means of enzymatic hydrolysis” (Consejo Superior de Investigaciones Cientifcas, priority 2004, dated 2012)
Residues, ends and D or L forms follow the SMILES beside them.

Columns and labels:
[1] = molecular target: T1, angiotensin converting enzyme (ACE, EC 3.4.15.1) (Oryctolagus cuniculus, UniProt P12822); format: biochemical
T1 sequence (P12822 34-1310): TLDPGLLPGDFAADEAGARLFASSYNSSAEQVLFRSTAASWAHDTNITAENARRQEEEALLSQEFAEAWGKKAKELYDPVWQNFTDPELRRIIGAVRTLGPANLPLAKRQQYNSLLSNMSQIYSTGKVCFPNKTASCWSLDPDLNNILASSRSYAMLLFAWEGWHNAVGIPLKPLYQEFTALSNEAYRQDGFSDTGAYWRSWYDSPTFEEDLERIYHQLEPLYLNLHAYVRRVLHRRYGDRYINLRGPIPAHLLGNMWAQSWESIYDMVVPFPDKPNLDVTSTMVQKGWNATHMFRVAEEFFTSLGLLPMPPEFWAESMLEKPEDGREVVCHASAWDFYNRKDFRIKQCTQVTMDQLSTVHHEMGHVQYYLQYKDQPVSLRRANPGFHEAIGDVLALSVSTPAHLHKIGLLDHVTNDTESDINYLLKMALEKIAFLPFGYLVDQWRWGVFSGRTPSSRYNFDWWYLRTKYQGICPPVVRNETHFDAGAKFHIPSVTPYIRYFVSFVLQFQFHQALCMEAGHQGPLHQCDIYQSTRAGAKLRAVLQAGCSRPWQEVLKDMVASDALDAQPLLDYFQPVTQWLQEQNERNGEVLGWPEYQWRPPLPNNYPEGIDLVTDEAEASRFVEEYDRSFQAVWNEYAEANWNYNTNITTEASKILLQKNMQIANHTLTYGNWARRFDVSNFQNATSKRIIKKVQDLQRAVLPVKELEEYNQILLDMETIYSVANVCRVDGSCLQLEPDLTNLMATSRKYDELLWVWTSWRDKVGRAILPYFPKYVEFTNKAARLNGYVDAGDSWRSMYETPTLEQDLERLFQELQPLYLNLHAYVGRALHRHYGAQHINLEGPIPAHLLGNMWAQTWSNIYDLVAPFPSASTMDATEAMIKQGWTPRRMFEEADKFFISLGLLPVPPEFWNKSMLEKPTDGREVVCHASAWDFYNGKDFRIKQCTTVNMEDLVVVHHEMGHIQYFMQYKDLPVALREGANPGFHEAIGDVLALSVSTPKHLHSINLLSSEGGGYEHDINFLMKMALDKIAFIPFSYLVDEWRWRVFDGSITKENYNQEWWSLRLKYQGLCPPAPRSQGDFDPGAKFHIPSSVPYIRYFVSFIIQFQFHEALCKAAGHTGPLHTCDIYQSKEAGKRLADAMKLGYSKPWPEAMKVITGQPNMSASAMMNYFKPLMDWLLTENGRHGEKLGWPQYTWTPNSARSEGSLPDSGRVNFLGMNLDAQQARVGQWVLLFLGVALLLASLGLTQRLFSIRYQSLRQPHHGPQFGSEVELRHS
Protocol: (§1) The inhibitory activity of the angiotensin converting enzyme (ACE) is measured in vitro according to the method of D. W. Cushman and H. S. Cheung (Spectrophotometric assay and properties of the angiotensin-converting enzyme of rabbit lung. Biochemical Pharmacology, 1971, 20: 1637-1648), later on modified by Y. K. Kim, S. Yoon, D. Y. Yu, B. Lönnerdal and B. H. Cheung (Novel angiotensin-I-converting enzyme inhibitory peptides derived from recombinant human αs1-casein expressed in Escherichia coli, Journal of Dairy Research 1999, 66, 431-439).
(§2) The substrate hippuryl histidyl leucine (HHL, Sigma Chemicals Co., St. Louis, Mo., USA) is dissolved in a 0.1 M borate buffer with 0.3 M NaCl pH 8.3 to obtain a final concentration of 5 mM. To 100 μl of substrate are added 40 μl of each of the samples whose ACEI activity it is wished to determine. The ACE enzyme (EC 3.4.15.1, Sigma) is added, dissolved in 50% glycerol and diluted 1/10 in bidistilled water at the moment of conducting the assay. The reaction is carried out at 37° C. for 30 minutes in a water-bath. The enzyme is deactivated by lowering the pH with 150 μl of 1 N HCl. The hippuric acid formed is extracted with 1000 μl of ethyl acetate. Following vortex stirring for 20 seconds, it is centrifuged at 4000 rpm for 10 minutes at room temperature. 750 μl of the organic phase are taken and evaporated by heating at 95° C. for 10 minutes. The hippuric acid residue is redissolved in 800 μl of bidistilled water and, following stirring for 20 seconds, the absorbency at 228 nm is measured in a Dur-70 spectrophotometer from Beckman Instruments, Inc., Fullerton, USA.
(§3) In order to calculate the percentage of ACEI activity, the following formula is used
(§4) The blank is used for correcting the background absorbency. This contains substrate, enzyme and 20 μl of bidistilled water in place of the sample, and the reaction is halted at zero time. The control implies a hundred percent of the enzymatic action on the substrate in the absence of inhibitors and contains 20 μl of water in place of the sample and is incubated the same time as the sample.
(§5) The results are presented as the IC50 (μM or μg/ml) or concentration at which 50% of the enzyme's activity is inhibited. The concentration of protein is determined by means of the bicinchonomic acid (BCA) assay (Pierce, Rockford, Ill., USA) using bovine seroalbumin as reference.

[2] = molecular target: ACE (Homo sapiens, UniProt P12821); details: according to the cited authors; listed as ovokinin; cited from earlier work
Chain of ACE (P12821 30-1306, species assumed): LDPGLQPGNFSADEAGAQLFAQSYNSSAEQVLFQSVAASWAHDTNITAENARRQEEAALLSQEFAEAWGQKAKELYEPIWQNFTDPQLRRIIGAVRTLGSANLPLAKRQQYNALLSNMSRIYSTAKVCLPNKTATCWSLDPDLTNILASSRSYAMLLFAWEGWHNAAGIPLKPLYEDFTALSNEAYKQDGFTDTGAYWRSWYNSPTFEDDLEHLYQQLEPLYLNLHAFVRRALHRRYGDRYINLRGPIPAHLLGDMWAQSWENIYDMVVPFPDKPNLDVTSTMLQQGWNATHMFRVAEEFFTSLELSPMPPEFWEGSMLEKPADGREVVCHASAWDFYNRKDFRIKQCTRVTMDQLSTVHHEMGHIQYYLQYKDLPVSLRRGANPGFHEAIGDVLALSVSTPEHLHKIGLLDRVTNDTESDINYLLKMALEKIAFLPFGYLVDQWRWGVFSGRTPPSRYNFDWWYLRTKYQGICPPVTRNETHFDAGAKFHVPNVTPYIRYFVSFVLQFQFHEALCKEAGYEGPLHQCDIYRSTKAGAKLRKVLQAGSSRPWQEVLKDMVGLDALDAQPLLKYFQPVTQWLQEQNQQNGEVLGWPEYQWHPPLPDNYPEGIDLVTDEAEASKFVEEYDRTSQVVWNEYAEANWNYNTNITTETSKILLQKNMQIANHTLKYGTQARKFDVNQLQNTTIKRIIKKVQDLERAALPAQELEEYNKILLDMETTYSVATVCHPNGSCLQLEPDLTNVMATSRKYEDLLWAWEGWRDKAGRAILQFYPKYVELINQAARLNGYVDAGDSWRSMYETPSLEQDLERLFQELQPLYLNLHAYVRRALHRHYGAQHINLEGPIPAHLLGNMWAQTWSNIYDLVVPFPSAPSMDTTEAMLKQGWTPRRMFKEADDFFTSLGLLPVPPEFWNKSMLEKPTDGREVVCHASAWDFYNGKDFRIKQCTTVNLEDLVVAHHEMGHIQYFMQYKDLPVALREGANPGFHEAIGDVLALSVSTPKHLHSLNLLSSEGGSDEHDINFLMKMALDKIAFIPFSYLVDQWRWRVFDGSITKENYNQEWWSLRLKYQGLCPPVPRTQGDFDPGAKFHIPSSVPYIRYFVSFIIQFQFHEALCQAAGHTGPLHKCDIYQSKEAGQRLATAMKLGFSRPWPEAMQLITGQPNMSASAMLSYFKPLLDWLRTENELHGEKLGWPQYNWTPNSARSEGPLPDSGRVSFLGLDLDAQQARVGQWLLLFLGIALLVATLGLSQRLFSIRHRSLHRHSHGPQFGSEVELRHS

[3] = test system: canine mesenteric arteries; details: listed as ovokinin; cited from earlier work
[4] = test system: spontaneously hypertensive rats (SHR); details: ovokinin oral 100 mg/kg, ovokinin (2-7) 10 mg/kg; cited from earlier work
[5] = test system: angiotensin converting enzyme (ACE) (EC 3.4.15.1, Sigma); assay: In vitro inhibitory activity of the angiotensin converting enzyme (ACEI activity); format: biochemical; details: result in words
Protocol: Measurement of the Inhibitory Activity of the Angiotensin Converting Enzyme (ACEI Activity)
as §1, §2, §3, §4, §5

[6] = test system: spontaneously hypertensive rats (SHR); details: SHR; literature; ovokinin orally 100 mg/kg; cited from earlier work
[7] = test system: canine mesenteric arteries; details: literature; cited from earlier work

SMILES | ACEI activity in vitro (in words) ([1]; peptides) | IC50 ([1]; read-out: ACEI activity IC50, synthetic peptides) | ACEI activity (in words) [2] | vasorelaxing (vasodilatory) activity (in words) [3] | anti-hypertensive / vasodilatory activity in SHR (in words) [4] | ACEI activity in vitro [5] | anti-hypertensive activity [6] | vasorelaxing activity [7]
CC(C)C[C@H](NC(=O)[C@H](Cc1ccccc1)NC(=O)[C@@H]1CCCN1C(=O)[C@H](Cc1c[nH]cn1)NC(=O)[C@H](CC(=O)O)NC(=O)[C@H](C)NC(=O)[C@H](CCCNC(=N)N)NC(=O)[C@@H](N)Cc1ccccc1)C(=O)O [SEQ. ID. N^o 5] (H-FRADHPFL-OH; N-terminus and C-terminus assumed) | potent ACEI activity | 3.2 µM | did not possess ACEI activity | displayed vasorelaxing activity | possessed anti-hypertensive activity | – | – | –
CC(C)C[C@H](NC(=O)[C@H](Cc1ccccc1)NC(=O)[C@@H]1CCCN1C(=O)[C@H](Cc1cnc[nH]1)NC(=O)[C@H](CC(=O)O)NC(=O)[C@H](C)NC(=O)[C@H](CCCNC(=N)N)NC(=O)[C@@H](N)Cc1ccccc1)C(=O)O [SEQ. ID. No 5] (H-FRADHPFL-OH) | – | – | – | – | – | potent ACEI activity in vitro | possessed anti-hypertensive activity when administered orally to spontaneously hypertensive rats (SHR) at doses of 100 mg/kg | displayed vasorelaxing activity in canine mesenteric arteries
